Experimental data from US11198869B2, “Angelman syndrome antisense treatment” (The Texas A&M University System, priority 2017, dated 2021).

How the values were obtained:
Type in all cases: cell-based, human
UBE3A [1] = experiment: UBE3A steady state RNA (qRT-PCR) in GABAergic iPSC-derived neurons; conditions: 10-point dose curve 1 nM-30 μM; 14 DIV to 20 DIV
SNRPN = experiment: RNA-sequencing of Angelman syndrome iPSC neurons: SNRPN; conditions: 30 μM; six days post-treatment; RNA-seq
Protocol: (§1) RNA was isolated using Qiagen RNAeasy Plus (74136, Qiagen, Hilden, Germany). RNA concentration was determined using Qubit Fluorometric Quantitation (Thermo Fisher Scientific) and RNA quality was assessed using a 4200 Agilent TapeStation (Agilent, Santa Clara, Calif.). RNA-sequencing libraries were generated using the Illumina TruSeq Stranded Total RNA kit (20020597, Illumina, Inc., San Diego, Calif.) according to the manufacturer's protocol. 75 base-pair paired-end sequencing was performed using a NextSeq 500 (IIlumina, San Diego, Calif.) at the Texas A&M Institute for Genome Sciences and Society Genomics core. Raw sequencing reads were processed using CASAVA. The resulting FASTQ sequences were examined using FASTQC. […]
(§2) To determine whether ASO-4.4.PS.L and ASO-6.1.PO-1.O affect the levels of RNA transcripts encoded by the PWS polycistronic transcript, RNA-sequencing was performed on AS iPS cells treated with each ASO and the steady state RNA levels of SNURF, SNRPN, the SNORD116 host-gene transcript (SNHG116), the SNORD116 snoRNAs, IPW, the SNORD115 host-gene transcript (SNHG115), the SNORD115 snoRNAs, and UBE3A-AS were quantified. UBE3A steady state RNA levels were also measured. […]

SNORD115 snoRNAs = experiment: RNA-sequencing of Angelman syndrome iPSC neurons: SNORD115 snoRNAs; conditions: 30 μM; six days post-treatment; RNA-seq
Protocol: as §1, §2

UBE3A [2] = experiment: RNA-sequencing of Angelman syndrome iPSC neurons: UBE3A; conditions: 30 μM; six days post-treatment; RNA-seq
Protocol: as §1, §2

Molecule | effect on total UBE3A RNA levels (in words) (UBE3A [1]) | Difference, SNRPN RNA level relative to vehicle (SNRPN) | Difference, SNORD115 RNA level relative to vehicle (SNORD115 snoRNAs) | Difference, UBE3A RNA level relative to vehicle (UBE3A [2])
CC[C@@]1(O)C(=O)OCc2c1cc1n(c2=O)Cc2cc3c(CN(C)C)c(O)ccc3nc2-1 [Topotecan, reference compound] | increased total UBE3A RNA levels in a dose-dependent manner, except for Topotecan at higher concentrations |  |  | 
A^L*G^L*A^L*a*t*g*g*c*a*c*a*t*c*t*5mC^L*T^L*T^L*G^L (NNNATGGCACATCTNNNN; LNA gapmer, PS, 5-methylcytosine, chemistry not fully specified) [ASO-4.4.PS.L] |  | −0.02 | −0.26 | 0.90
C^O*U^O*G^O*G^O-t*g*t*c*a*a*c*a*a*g-C^O*C^O*A^O*A^o [ASO-6.1.PO-1.O] |  | 0.03 | 0.24 | 0.74
U^O*A^O*G^O*A^O*A^O*t*g*g*c*a*c*a*t*c*t*C^O*U^O*U^O*G^O*G^O [ASO-4] | increased total UBE3A RNA levels in a dose-dependent manner |  |  | 
